Test results: ChEMBL document CHEMBL1201862, “PubChem BioAssay data set” (2004)
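Exposure lasted 48 hours, with cells grown in 96-well plates and compounds tested at five concentrations. GI50 marks 50% less growth.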 Active and inactive are the calls of the source. Rule as the data show it: active = GI50 up to about 1.1 µM and inactive = higher.

Key:
Test in all cases: growth of human tumour cells (NCI), 48 h
CAKI-1 = test system: CAKI-1
CCRF-CEM = test system: CCRF-CEM
HT-29 = test system: HT-29
OVCAR-8 = test system: OVCAR-8
IGROV-1 = test system: IGROV-1
NCI-H522 = test system: NCI-H522
MOLT-4 = test system: MOLT-4
OVCAR-5 = test system: OVCAR-5
NCI-H226 = test system: NCI-H226
SF-268 = test system: SF-268
T47D = test system: T47D
MCF7 = test system: MCF7
MDA-N = test system: MDA-N
A549 = test system: A549
HOP-92 = test system: HOP-92
Hs-578T = test system: Hs-578T
SF-539 = test system: SF-539
SN12C = test system: SN12C
NCI-H460 = test system: NCI-H460
RPMI-8226 = test system: RPMI-8226
SK-MEL-28 = test system: SK-MEL-28
DU-145 = test system: DU-145
HL-60 = test system: HL-60
SK-MEL-5 = test system: SK-MEL-5
COLO 205 = test system: COLO 205
Malme-3M = test system: Malme-3M
HOP-62 = test system: HOP-62
NCI/ADR-RES = test system: NCI/ADR-RES
UACC-257 = test system: UACC-257
OVCAR-4 = test system: OVCAR-4
K562 = test system: K562
KM12 = test system: KM12
A498 = test system: A498
HCT-116 = test system: HCT-116
SK-MEL-2 = test system: SK-MEL-2
MDA-MB-435 = test system: MDA-MB-435
UO-31 = test system: UO-31
MDA-MB-231 = test system: MDA-MB-231
LOX IMVI = test system: LOX IMVI
NCI-H23 = test system: NCI-H23
SNB-19 = test system: SNB-19
BT-549 = test system: BT-549
SW-620 = test system: SW-620
OVCAR-3 = test system: OVCAR-3
ACHN = test system: ACHN
UACC-62 = test system: UACC-62
U-251 = test system: U-251
M14 = test system: M14
RXF 393 = test system: RXF 393
EKVX = test system: EKVX
SNB-75 = test system: SNB-75
SK-OV-3 = test system: SK-OV-3
HCT-15 = test system: HCT-15
SF-295 = test system: SF-295
786-0 = test system: 786-0
PC-3 = test system: PC-3
TK-10 = test system: TK-10
SR = test system: SR

`C/C(=N/S(=O)(=O)c1ccc(Cl)c(Cl)c1)OCC(C)(C)C` was tested, and the GI50 (CAKI-1) was > 100 µM (inactive), the GI50 (CCRF-CEM) was > 100 µM (inactive) and the GI50 (HT-29) was > 100 µM (inactive). The GI50 (OVCAR-8) was > 100 µM (inactive), the GI50 (IGROV-1) was > 100 µM (inactive) and the GI50 (NCI-H522) was > 100 µM (inactive). For the same compound, the GI50 (MOLT-4) was > 100 µM (inactive), the GI50 (OVCAR-5) was > 100 µM (inactive) and the GI50 (NCI-H226) was > 100 µM (inactive). For the same compound, the GI50 (SF-268) was > 100 µM (inactive), the GI50 (T47D) was > 100 µM (inactive) and the GI50 (MCF7) was > 100 µM (inactive). The GI50 (MDA-N) was > 100 µM (inactive), the GI50 (A549) was > 100 µM (inactive) and the GI50 (HOP-92) was > 100 µM (inactive). The GI50 (Hs-578T) was > 100 µM (inactive), the GI50 (SF-539) was > 100 µM (inactive) and the GI50 (SN12C) was > 100 µM (inactive). The GI50 (NCI-H460) was > 100 µM (inactive), the GI50 (RPMI-8226) was > 100 µM (inactive) and the GI50 (SK-MEL-28) was > 100 µM (inactive). The GI50 (DU-145) was > 100 µM (inactive), the GI50 (HL-60) was 6.98 µM (inactive) and the GI50 (SK-MEL-5) was > 100 µM (inactive). For the same compound, the GI50 (COLO 205) was > 100 µM (inactive), the GI50 (Malme-3M) was > 100 µM (inactive) and the GI50 (HOP-62) was > 100 µM (inactive). The GI50 (NCI/ADR-RES) was > 100 µM (inactive), the GI50 (UACC-257) was > 100 µM (inactive) and the GI50 (OVCAR-4) was > 100 µM (inactive). The GI50 (K562) was > 100 µM (inactive), the GI50 (KM12) was > 100 µM (inactive) and the GI50 (A498) was > 100 µM (inactive). The GI50 (HCT-116) was > 100 µM (inactive), the GI50 (SK-MEL-2) was > 100 µM (inactive) and the GI50 (MDA-MB-435) was > 100 µM (inactive). For the same compound, the GI50 (UO-31) was > 100 µM (inactive), the GI50 (MDA-MB-231) was > 100 µM (inactive) and the GI50 (LOX IMVI) was > 100 µM (inactive). For the same compound, the GI50 (NCI-H23) was > 100 µM (inactive), the GI50 (SNB-19) was > 100 µM (inactive) and the GI50 (BT-549) was > 100 µM (inactive). For the same compound, the GI50 (SW-620) was > 100 µM (inactive), the GI50 (OVCAR-3) was > 100 µM (inactive) and the GI50 (ACHN) was > 100 µM (inactive). The GI50 (UACC-62) was > 100 µM (inactive), the GI50 (U-251) was > 100 µM (inactive) and the GI50 (M14) was > 100 µM (inactive). For the same compound, the GI50 (RXF 393) was > 100 µM (inactive), the GI50 (EKVX) was > 100 µM (inactive) and the GI50 (SNB-75) was > 100 µM (inactive). For the same compound, the GI50 (SK-OV-3) was > 100 µM (inactive), the GI50 (HCT-15) was over 100 µM and the GI50 (SF-295) was > 100 µM (inactive). For the same compound, the GI50 (786-0) was > 100 µM (inactive), the GI50 (PC-3) was > 100 µM (inactive) and the GI50 (TK-10) was > 100 µM (inactive).

With `COC(=O)C(/C(=N/N)C(=O)Nc1cc(Cl)c(Cl)cc1Cl)c1nc2ccc(Cl)cc2nc1O` (configuration not stated) the GI50 (CAKI-1) was > 100 µM (inactive), the GI50 (CCRF-CEM) was > 10 µM (inactive) and the GI50 (HT-29) was > 100 µM (inactive). For the same compound, the GI50 (OVCAR-8) was > 100 µM (inactive), the GI50 (IGROV-1) was 45 µM (inactive) and the GI50 (NCI-H522) was 38.9 µM (inactive). The GI50 (MOLT-4) was 0.0515 µM (active), the GI50 (OVCAR-5) was > 100 µM (inactive) and the GI50 (NCI-H226) was > 100 µM (inactive). For the same compound, the GI50 (SF-268) was > 100 µM (inactive), the GI50 (T47D) was > 100 µM (inactive) and the GI50 (MCF7) was > 100 µM (inactive). The GI50 (MDA-N) was > 100 µM (inactive), the GI50 (A549) was > 100 µM (inactive) and the GI50 (HOP-92) was > 100 µM (inactive). For the same compound, the GI50 (Hs-578T) was > 100 µM (inactive), the GI50 (SR) was 87.1 µM (inactive) and the GI50 (SF-539) was > 100 µM (inactive). The GI50 (SN12C) was > 100 µM (inactive), the GI50 (NCI-H460) was > 100 µM (inactive) and the GI50 (RPMI-8226) was > 100 µM (inactive). For the same compound, the GI50 (SK-MEL-28) was > 100 µM (inactive), the GI50 (HL-60) was > 100 µM (inactive) and the GI50 (SK-MEL-5) was > 100 µM (inactive). For the same compound, the GI50 (Malme-3M) was > 100 µM (inactive), the GI50 (HOP-62) was > 100 µM (inactive) and the GI50 (NCI/ADR-RES) was 84.5 µM (inactive). For the same compound, the GI50 (UACC-257) was > 100 µM (inactive), the GI50 (OVCAR-4) was 2.79 µM (inactive) and the GI50 (K562) was > 100 µM (inactive). The GI50 (KM12) was > 100 µM (inactive), the GI50 (A498) was > 100 µM (inactive) and the GI50 (HCT-116) was > 100 µM (inactive). The GI50 (SK-MEL-2) was > 100 µM (inactive), the GI50 (MDA-MB-435) was > 100 µM (inactive) and the GI50 (UO-31) was 42.5 µM (inactive). The GI50 (MDA-MB-231) was > 100 µM (inactive), the GI50 (LOX IMVI) was > 100 µM (inactive) and the GI50 (NCI-H23) was > 100 µM (inactive). For the same compound, the GI50 (BT-549) was > 100 µM (inactive), the GI50 (SW-620) was > 100 µM (inactive) and the GI50 (OVCAR-3) was 95.3 µM (inactive). The GI50 (ACHN) was 44.8 µM (inactive), the GI50 (UACC-62) was > 100 µM (inactive) and the GI50 (U-251) was > 100 µM (inactive). For the same compound, the GI50 (M14) was > 100 µM (inactive), the GI50 (RXF 393) was > 100 µM (inactive) and the GI50 (EKVX) was 29.1 µM (inactive). The GI50 (SNB-75) was > 100 µM (inactive), the GI50 (SK-OV-3) was > 100 µM (inactive) and the GI50 (HCT-15) was over 100 µM. For the same compound, the GI50 (SF-295) was > 100 µM (inactive), the GI50 (786-0) was > 100 µM (inactive) and the GI50 (PC-3) was > 100 µM (inactive). For the same compound, the GI50 (TK-10) was > 100 µM (inactive).
